Here are results for four compounds from PMC4764201, “High Throughput Screen for Escherichia coli Twin Arginine Translocation (Tat) Inhibitors” (PLoS ONE, 2016).

Assay [1] deals with Escherichia coli Tat pathway. In words: Live cell assay: total mCherry fluorescence of cells producing spTorA-mCherry-SsrA (primary HTS assay). In kind it is cell-based. Particulars: for effect on mCherry fluorescence in culture: nigericin and/or valinomycin, 50 μM each. The text has this:
Having obtained the calibration and validation data described in the previous sections, we next established the protocol for the HTS. Details are provided in the Materials and Methods section. Here, we briefly summarize the assay. A single colony of E. coli strain MC4100(DE3) containing plasmids encoding TatABC and spTorA-mCherry-SsrA was inoculated into LB and grown overnight. The next morning, cells were transferred to fresh media, the production of TatABC and spTorA-mCherry-SsrA was induced, and cultures were aliquoted onto plates with test compounds. NaSCN was included in control wells to simulate a hit. Cells were grown for 8 h, followed by incubation at 4°C overnight, and then read the next day. Setting the total cellular fluorescence obtained with spTorA-mCherry-H6 under Tat^++ conditions to 100%, spTorA-mCherry-SsrA yielded a total cellular fluorescence signal of 63±14%, consistent with SsrA-induced degradation of the mCherry protein. The total cellular fluorescence was further reduced to 36±14% in the presence of 30 mM NaSCN (simulated hit), and to 41±6% in the absence of TatABC, verifying the Δψ- and Tat-dependence of the fluorescence signal (Fig 4D).
A single colony of E. coli strain MC4100(DE3) (pTatABC-DUET1, pTorA-mCherry-SsrA) was inoculated into a 100 mL LB culture supplemented with Ap and Cm and grown at 37°C with shaking (250 rpm) overnight. Cells were harvested by centrifugation at 4,000g for 10 min at room temperature (RT), suspended in 10 mL fresh LB broth supplemented with Ap and Cm, and the optical density (A500) was determined. Simultaneously, 700 mL LB supplemented with 100 mM arabinose, 2 mM IPTG, 100 μg/mL Ap and 68 μg/mL Cm was filter-sterilized (0.22 μm), and then divided into 200 mL (A) and 500 mL (B) portions. Sterile NaSCN (30 mM final; 1.5 mL of 4 M NaSCN) was added to portion A, and an equal ratio of sterile water was added to portion B (3.75 mL). Media and cells were transferred to the HTS facility on ice.
A CyBi-Well vario pipetting workstation (CyBio, Jena, Germany) was used to dispense library compounds and cultures. Library compounds (1 μL) solubilized in DMSO were added to 384-well black, clear-bottomed plates (Greiner Bio-one, Germany) in columns 3 to 22 (320 wells/plate). For controls, DMSO (1 μL) was added to each well in columns 1, 2, […], to achieve DMSO uniformity across the plate. Both portions of LB media were inoculated with E. coli MC4100(DE3) (pTatABC-DUET1, pTorA-mCherry-SsrA) from the concentrated stock to a final A500 = 0.15. The media with 30 mM NaSCN (positive control, or simulated hit) was dispensed into each well of columns 1 and 24 (49 μL each). An equivalent volume of media without NaSCN was dispensed into each well of columns 2 to 23. Columns 2 and 23 lacked NaSCN and test compounds and served as negative controls. The first 12,800 compounds were screened at 5 μM (plates 1–40), and the remaining 38,800 compounds were screened at 20 μM (plates 41–162).
(§1) The plates containing cells and dispersed test compounds were grown with shaking (200 rpm) at 25°C for 8 h. Plates were individually mounted, not stacked, on a hollow plastic platform, allowing adequate air circulation. Following the 8 h incubation, plates were transferred to 4°C for 16 h. Each plate was covered with an empty plate to prevent condensation on the lid. […] Following the incubation, plates were read using a BMG Polarstar Omega plate reader (BMG Labtech, Ortenberg, Germany) to determine optical densities (A500) and mCherry fluorescence intensities (EX = 584 nm, EM = 620 nm).
Supplementary file pone.0149659.s003.tiff: S3 Fig IC50's for Hit Compound 181^JS. (A) The total cellular mCherry fluorescence (live cell assay; n = 1), (B) the in vitro NADH-dependent Tat transport efficiency of pre-SufI (n = 1), and (C) the maximum transmembrane electrical potential gradient (n = 1) were measured for a range of concentrations of compound 181^JS (S2E Fig). (D) SDS-PAGE gel showing in-gel fluorescence data used in (B). […]

Another assay relates to E. coli MC4100(DE3). In words: Cell growth (optical density A500) under Tat++ conditions. It counts as cell-based, Escherichia coli. As for the experimental part:
Fig 4 Effect of Oxidative Phosphorylation Inhibitors on In Vivo Tat Transport and Sensitivity of Fluorescence Detection on Plates. (A) Effect of oxidative phosphorylation inhibitors on cell growth and mCherry fluorescence under Tat^++ conditions. Cells producing spTorA-mCherry-SsrA under Tat^++ conditions were grown at 25°C for 8 h in the presence of the indicated respiratory inhibitors. After overnight incubation at 4°C, optical densities (upper panel; A500) and total mCherry cellular fluorescence intensities (lower panel; EX = 587 nm, EM = 610 nm) were measured (n = 3). Nigericin (N; 50 μM) is a H^+/K^+ exchanger, which collapses the ΔpH gradient. Valinomycin (V; 50 μM) is a K^+ ionophore, which collapses the Δψ. NaSCN (SCN; 50 mM) collapses the Δψ. NaN3 (N3; 0.1%) inhibits the cytochrome bo3 terminal oxidase. (B) Effect of NaSCN concentration on cell density and total mCherry cellular fluorescence. Measurements were made after incubating cells overnight at 4°C (n = 3). (C) Calibration and sensitivity of mCherry fluorescence detection in 384-well plates. Overnight cultures of E. coli MC4100(DE3) cells were diluted to A500 = 0.25, 0.2, 0.15, 0.10 and 0.05, and aliquoted into 384-well plates. The spTorA-mCherry-SsrA and TatABC proteins were induced together or neither were induced, as indicated. The cells were incubated at 25°C for 8 hours, and stored overnight at 4°C. Optical densities (upper panel) and mCherry fluorescence intensities (lower panel) were determined with a BMG Polarstar Omega plate reader (at 500 nm for absorbance; EX = 584 nm, EM = 620 nm for fluorescence). For comparison, the absorbance and fluorescence intensities from purified spTorA-mCherry-H6 (30, 25, 20, 15, 10 and 5 nM) are also shown (n = 3 plates, 16 wells/plate). (D) Simulated hits on 384-well plates. Using the approach described in (C), cells (A500 = 0.15) were grown on plates under the indicated conditions, and then fluorescence intensities were measured. spTorA-mCherry-SsrA was used for conditions II-IV. spTorA-mCherry-H6 was used for a minus SsrA control (I; 100%). The SsrA tag decreased the mCherry fluorescence intensity (II; 63±14%), consistent with a decrease in cytoplasmic mCherry concentration due to SsrA-dependent degradation.
as §1
Supplementary file pone.0149659.s005.tiff: S5 Fig Effect of P. aeruginosa Tat Inhibitors on E. coli Cell Growth and Tat Transport. The concentration-dependent effects of Bay 11–7082 (A) and N-phenylmaleimide (B) on bacterial growth (black) and in vivo Tat transport of spTorA-mCherry-SsrA (red) was determined under Tat^++ conditions (top). An overnight culture of MC4100(DE3) (pTorA-mCherry-SsrA, pTatABC-Duet1) was diluted 1:50 in 10 mL fresh LB broth with appropriate antibiotics and dispensed (2 mL) into 5 tubes, and growth was continued at 37°C with shaking at 200 rpm until A500 ≈ 0.5. The indicated concentrations of the two compounds were added, and the expression of spTorA-mCherry-SsrA and TatABC were induced. Cultures were grown for another 8 h at 25°C. Cell growth was assayed by A500, and cells (1 mL, A500 = 1.0) were fractionated into cytoplasmic (C) and periplasmic (P) fractions as described. Transport of spTorA-mCherry-SsrA was assayed by in-gel fluorescence of mCherry (upper gels) and Western blot analyses (middle gels). […]

In assay [2] the target is E. coli Tat machinery (IMVs containing overproduced TatABC) (Escherichia coli, UniProt P69423+P69425+P69428). Particulars: cited from earlier work; for effect on Tat transport in vitro: 2.5 μM of each of the two ionophores, both added.
The mark [3] stands for this setting: nigericin and/or valinomycin, 50 μM each.

SMILES strings stand for the structures.

E. coli Tat machinery (IMVs containing overproduced TatABC), sequence (P69423 2-258): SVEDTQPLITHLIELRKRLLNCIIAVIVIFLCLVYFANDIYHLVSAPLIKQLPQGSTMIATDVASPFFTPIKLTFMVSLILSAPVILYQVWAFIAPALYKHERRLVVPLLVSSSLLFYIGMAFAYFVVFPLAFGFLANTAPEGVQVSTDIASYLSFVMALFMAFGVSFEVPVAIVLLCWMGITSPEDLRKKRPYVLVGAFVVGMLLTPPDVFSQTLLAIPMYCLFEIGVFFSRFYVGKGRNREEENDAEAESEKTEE
E. coli Tat machinery (IMVs containing overproduced TatABC), sequence (P69425 whole entry): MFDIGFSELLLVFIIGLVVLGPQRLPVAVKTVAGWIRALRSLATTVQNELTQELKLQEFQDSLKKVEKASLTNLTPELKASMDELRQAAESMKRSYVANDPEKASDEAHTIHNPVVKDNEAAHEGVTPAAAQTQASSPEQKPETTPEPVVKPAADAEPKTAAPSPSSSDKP
E. coli Tat machinery (IMVs containing overproduced TatABC), sequence (P69428 whole entry): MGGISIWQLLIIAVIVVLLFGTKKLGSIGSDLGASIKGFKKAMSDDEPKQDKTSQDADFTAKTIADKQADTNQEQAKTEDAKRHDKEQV

Turning to `N#C[S-].[Na+]` [NaSCN], the “total cellular fluorescence (mCherry)” value in assay [1] (30 mM NaSCN, spTorA-mCherry-H6 under Tat++ = 100%, spTorA-mCherry-SsrA without NaSCN 63±14%) worked out at 36±14%. For the same compound, the “reduction of mCherry fluorescence” value in assay [1] (NaSCN 50 mM, Tat++ cells, 25°C 8 h) is on record as ~ 40%. In assay [1] (dose response, Tat++ cells), the “concentration sufficient to maximally reduce the mCherry fluorescence signal without affecting cell growth” value is 30 mM. Besides, the “effect on growth of E. coli cultures” value in the assay on E. coli MC4100(DE3) (NaSCN 50 mM) is given as “without affecting growth”. Further, the “effect on in vitro Tat transport” value in assay [2] (NaSCN alone) is reported as “completely inhibits”.
In the case of `CC(C)[C@@H]1NC(=O)[C@H](C)OC(=O)[C@@H](C(C)C)NC(=O)[C@@H](C(C)C)OC(=O)[C@H](C(C)C)NC(=O)[C@H](C)OC(=O)[C@@H](C(C)C)NC(=O)[C@@H](C(C)C)OC(=O)[C@H](C(C)C)NC(=O)[C@H](C)OC(=O)[C@@H](C(C)C)NC(=O)[C@@H](C(C)C)OC1=O` [valinomycin], the “effect on mCherry fluorescence in culture” value in assay [1] is recorded as “did not affect”. In addition, the “effect on cell growth” value with E. coli MC4100(DE3) (setting [3]) is given as “did not affect”. Besides, in assay [2], the “effect on Tat transport in vitro” value was “completely block”.
For `[N-]=[N+]=[N-].[Na+]` [Sodium azide], in assay [1] (NaN3 0.1%), the “effect on mCherry fluorescence signal” value was “decreased the mCherry fluorescence signal”. Besides, the “effect on cell growth” value in the assay with E. coli MC4100(DE3) (NaN3 0.1%) was “inhibited cell growth”.
Consider `CO[C@@H]1C[C@@H](C[C@H]2CC[C@H](C)[C@H]([C@@H](C)C(=O)O)O2)O[C@]2(O[C@](C)([C@H]3CC[C@@](C)([C@@H]4O[C@@H]([C@H]5O[C@@](O)(CO)[C@H](C)C[C@@H]5C)C[C@@H]4C)O3)C[C@H]2C)[C@@H]1C` [nigericin], for which the “effect on mCherry fluorescence in culture” value in assay [1] is listed as “did not affect”. In addition, the “effect on cell growth” value in the assay with E. coli MC4100(DE3) (setting [3]) was “did not affect”. The “effect on Tat transport in vitro” value in assay [2] is “completely block”.
